How the values were obtained:
Acetylcholinesterase = Acetylcholinesterase (Electrophorus electricus, UniProt O42275); assay: Inhibition of electric eel AChE by Ellman's method
Mu-type opioid receptor = Mu-type opioid receptor (Rattus norvegicus, UniProt P33535); assay: Displacement of [3H]DAMGO from mu opioid receptor in rat brain membrane; assay type: cell membranes
[1] = biological target: Delta-type opioid receptor (Rattus norvegicus, UniProt P33533); assay: Displacement of [3H][Ile5,6]deltorphin2 from delta opioid receptor in rat brain membrane; assay type: cell membranes
[2] = biological target: Kappa-type opioid receptor (Cavia porcellus, UniProt P41144); assay: Displacement of [3H]U69593 from kappa opioid receptor in guinea pig brain membrane; assay type: cell membranes
Sequence of Kappa-type opioid receptor (P41144 whole entry): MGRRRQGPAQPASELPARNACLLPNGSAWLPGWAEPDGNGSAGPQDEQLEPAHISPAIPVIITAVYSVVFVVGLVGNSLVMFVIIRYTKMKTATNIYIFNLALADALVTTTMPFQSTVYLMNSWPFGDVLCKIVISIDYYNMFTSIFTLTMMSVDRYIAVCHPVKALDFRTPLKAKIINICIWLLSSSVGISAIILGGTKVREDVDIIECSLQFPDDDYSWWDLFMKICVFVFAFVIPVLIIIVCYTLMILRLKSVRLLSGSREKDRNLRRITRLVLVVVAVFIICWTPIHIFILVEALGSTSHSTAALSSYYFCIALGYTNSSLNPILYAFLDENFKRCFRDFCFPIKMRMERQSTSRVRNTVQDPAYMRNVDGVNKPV

Sequence of Delta-type opioid receptor (P33533 whole entry): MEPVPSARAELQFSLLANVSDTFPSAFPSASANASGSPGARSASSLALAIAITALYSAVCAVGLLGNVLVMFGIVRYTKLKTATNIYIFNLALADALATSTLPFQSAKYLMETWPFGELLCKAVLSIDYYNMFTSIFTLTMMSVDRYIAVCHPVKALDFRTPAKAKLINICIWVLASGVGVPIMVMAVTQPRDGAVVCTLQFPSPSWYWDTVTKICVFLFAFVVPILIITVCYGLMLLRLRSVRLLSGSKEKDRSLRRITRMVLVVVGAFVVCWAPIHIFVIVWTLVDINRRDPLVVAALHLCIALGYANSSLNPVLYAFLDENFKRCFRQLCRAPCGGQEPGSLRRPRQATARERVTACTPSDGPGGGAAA
Sequence of Acetylcholinesterase (O42275 whole entry): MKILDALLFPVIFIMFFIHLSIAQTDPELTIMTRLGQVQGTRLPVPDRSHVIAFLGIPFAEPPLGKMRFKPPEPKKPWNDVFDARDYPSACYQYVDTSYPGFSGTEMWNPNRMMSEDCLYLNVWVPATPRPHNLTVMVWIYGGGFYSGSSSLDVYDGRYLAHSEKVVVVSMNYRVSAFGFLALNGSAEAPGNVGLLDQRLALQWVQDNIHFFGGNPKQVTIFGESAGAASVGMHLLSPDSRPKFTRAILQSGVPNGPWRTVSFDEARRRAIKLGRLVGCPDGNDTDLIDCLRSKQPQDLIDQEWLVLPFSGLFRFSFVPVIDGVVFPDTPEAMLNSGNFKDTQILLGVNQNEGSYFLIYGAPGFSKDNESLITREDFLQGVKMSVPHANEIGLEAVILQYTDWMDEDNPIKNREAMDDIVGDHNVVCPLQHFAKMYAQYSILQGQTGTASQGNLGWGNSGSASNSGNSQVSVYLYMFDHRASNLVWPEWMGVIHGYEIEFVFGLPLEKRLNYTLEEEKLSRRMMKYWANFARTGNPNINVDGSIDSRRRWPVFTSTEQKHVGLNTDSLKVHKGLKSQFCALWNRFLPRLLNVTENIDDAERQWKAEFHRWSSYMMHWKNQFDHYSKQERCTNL
Sequence of Mu-type opioid receptor (P33535 whole entry): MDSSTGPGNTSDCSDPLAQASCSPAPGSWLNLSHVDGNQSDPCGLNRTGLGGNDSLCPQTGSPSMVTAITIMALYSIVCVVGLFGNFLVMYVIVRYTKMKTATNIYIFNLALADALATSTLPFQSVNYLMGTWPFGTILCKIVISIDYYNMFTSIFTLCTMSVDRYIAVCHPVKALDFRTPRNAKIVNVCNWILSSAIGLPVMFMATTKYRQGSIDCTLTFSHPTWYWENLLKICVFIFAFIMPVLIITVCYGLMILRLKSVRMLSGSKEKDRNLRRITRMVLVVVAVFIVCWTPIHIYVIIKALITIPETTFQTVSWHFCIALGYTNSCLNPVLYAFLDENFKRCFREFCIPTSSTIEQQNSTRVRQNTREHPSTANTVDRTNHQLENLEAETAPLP

Structure (SMILES) | IC50 (Acetylcholinesterase) [µM] | Ki (Mu-type opioid receptor) [µM] | Ki [1] [µM] | Ki [2] [µM] | Ki (Acetylcholinesterase) [µM]
O=CN1CC[C@]23c4c5cccc4O[C@H]2C(=O)CC[C@H]3[C@H]1C5 | 60.3 | > 10 | > 10 | > 10 | –
C=CCN1CC[C@]23CC(=O)CC[C@H]2[C@H]1Cc1cccc(OC)c13 | – | 0.00655 | 0.217 | 0.113 | –
CN1CC[C@@]23CCCC[C@@H]2[C@@H]1Cc1ccc(O)cc13 [DEXTRORPHAN] | – | – | – | – | 20
C=CCN1CC[C@]23CC(=O)CC[C@H]2[C@H]1Cc1cccc(OC(C)=O)c13 | 193 | – | – | – | –
CCO[C@@]12CCC(=O)C[C@@]13CCN(C)[C@@H]2Cc1cccc(O)c13 | 37.1 | 0.0202 | 0.316 | 0.0331 | –
CN1CC[C@]23CCCC[C@H]2[C@H]1Cc1ccc(O)cc13 [LEVORPHANOL] | – | – | – | – | 25
C=CCN1CC[C@]23CC(=O)CC[C@@]2(OC)[C@H]1Cc1cccc(OC)c13 | – | 0.002 | 0.21 | 0.567 | –
COc1cccc(CC2=NCCc3cc(OC)ccc32)c1 | 42.9 | – | – | – | –
CCCCCCOc1cccc2c1[C@]13CCN(CC4CC4)[C@H](C2)[C@]1(OC)C=CC(=O)C3 | 405 | – | – | – | –
COC1=CCC2=C(CCNC2Cc2ccccc2O)C1 (stereo unspecified) | 138 | > 10 | > 10 | > 10 | –
COc1ccc2c3c1O[C@H]1C(=O)CC[C@@]4(O)[C@@H](C2)N(C)CC[C@]314 [OXYCODONE] | 76.2 | – | – | – | –
CCO[C@@]12CCC(=O)[C@]3(C)Oc4c(O)ccc5c4[C@@]31CCN(C)[C@@H]2C5 | – | 0.0001 | 0.0048 | 0.0102 | –
COC1CCC2C(Cc3cccc(O)c3)=NCCC2C1 (stereo unspecified) | 43.1 | 2.32 | > 10 | > 10 | –
CO[C@@]12CCC(=O)[C@@H]3Oc4cccc5c4[C@@]31CCN(C)[C@@H]2C5 | 140 | – | – | – | –
COc1cccc2c1[C@]13CCN(C)[C@H](C2)[C@]1(OC)CCC(=O)C3 | 46.2 | 0.00115 | 0.101 | 0.403 | –
C=CCN1CC[C@@]23CCCC[C@@H]2[C@@H]1Cc1ccc(O)cc13 [DEXTALLORPHAN] | – | – | – | – | 20
C=CCN1CC[C@]23CCCC[C@H]2[C@H]1Cc1ccc(O)cc13 [LEVALLORPHAN] | – | – | – | – | 12
CN1CC[C@]23c4c5cccc4O[C@H]2C(=O)CC[C@@]3(O)[C@H]1C5 | 65.3 | – | – | – | –
O=CN1CC[C@]23CC(=O)CC[C@H]2[C@H]1Cc1c(O)ccc(O)c13 | – | 0.0672 | 1.25 | 0.328 | –
O=CN1CC[C@]23CC(=O)CC[C@H]2[C@H]1CC1C(=O)C=CC(=O)C13 (stereo partly specified) | 12.7 | 0.00046 | 0.0122 | 0.0432 | –

Reference: ChEMBL document CHEMBL1250431, “Morphinans and isoquinolines: acetylcholinesterase inhibition, pharmacophore modeling, and interaction with opioid receptors” (Bioorg Med Chem, 2010)
